Results on 34 molecules are retold here after article PMC9358669, “Native metabolomics identifies the rivulariapeptolide family of protease inhibitors” (Nature Communications, 2022).

Entries after “also recorded” stand apart in the source; their conditions may differ. Starred links: 1 amine or outer side, 2 acyl side, 3 side chain; linkers in the order of their positions; H or OH if unused. Positions of bridges follow the written chain, without caps; N, C: chain ends. Non-standard residues stand in square brackets, D forms with d. Residues, ends and D or L forms follow the SMILES beside them. *: point of attachment. Ahp(3S,6R)alloIle = CC[C@@H](C)[C@@H](C(=O)[*:2])N1C(=O)[C@@H](N[*:1])CC[C@H]1O; Leu(3R-OH,Nα-propionyl) = CCC(=O)N[C@H](C(=O)*)[C@H](O)C(C)C; Propanoyl(2R-OH,3-(4-HOPh)) = O=C([C@H](O)Cc1ccc(O)cc1)*; X1 = CC(C)[C@@H](O[*:3])[C@H](N[*:1])C(=O)[*:2]; NMeF = CN[C@@H](Cc1ccccc1)C(=O)O; NMeT = CN[C@H](C(=O)O)[C@@H](C)O; dPhLac = O=C(O)[C@H](O)Cc1ccccc1; NMeA = CN[C@@H](C)C(=O)O; NMeDha = C=C(NC)C(=O)O

In one experiment the target is T1, Chymotrypsin (Bos taurus, UniProt P00766).
T1 construct: purchased Sigma-Aldrich
As to the kind of experiment: Native metabolomics / native MS detection of chymotrypsin-ligand complexes. It is filed as binding. The following applies: control compounds pooled at 10 µg/mL. The protocol:
For native metabolomics experiments, the same chromatographic parameters were used and in addition, 220 µL/min (setup A) or 150 µL/min (setup B) ammonium acetate buffer was infused post-column through a make-up pump and a PEEKT-splitter and enzyme solution was infused with 2 µL/min flow rate via the integrated syringe pump. ESI settings were set to 40 arb. units sheath gas flow, the auxiliary gas flow was set to 10 arb. units and sweep gas flow was set to 0 arb. units. The auxiliary gas temperature was set to 150 °C. The spray voltage was set to 3 kV and the inlet capillary was heated to 253 °C. S-lens level was set to 30 V applied. MS scan range was set to 2000-4000 m/z (setup A) and 2500–4000 m/z (setup B) with a resolution Rm/z 200 140,000 (setup A) and 120,000 (setup B) with 2 microscans. MS acquisition was performed in all-ion fragmentation (AIF) mode with Rm/z 200 with 20% HCD collision energy and an isolation window of 2000 –4000 m/z (setup A) or 2500–4000 m/z (setup B).
For native LC-MS data, multiple charged spectra were deconvoluted using the Xtract algorithm in Qualbrowser, part of the Xcalibur software (Thermo Scientific) and also using FLASHDeconv (version 2.0Beta) {Jeong, K. et al. FLASHDeconv: Ultrafast, High-Quality Feature Deconvolution for Top- Down Proteomics. Cell Syst 10, 213-218 e216 (2020).}. For Xtract algorithm, both deconvoluted native LC-MS and metabolomics LC-MS/MS.raw files were converted to the centroid.mzML file format using MSconvert of the proteowizard software package. For FLASHDeconv, the raw files were converted into centroid m/zML again using MSconvert software first. Then the converted mzML files were deconvolved to generate deconvolved.mzML format files. Feature finding of both file types was performed using a modified version of MZmine2.37 (corr.17.7). Feature tables from both intact protein mass and metabolomics data were matched by their retention time (RT) and an m/z offset corresponding to the mass of chymotrypsin (25234 Da) with an RT tolerance of 0.2 min and a mass tolerance of 4 Da.
To optimize ESI setting as well as the influence of NH4Acetate concentration and pH, we used molassamide as a test compound. For optimization of ESI settings, we performed flow injections without a column and ramped ESI aux gas temperature, in-source CID energy, S-lense RF voltage. Optimization of pH values over the entire LC gradient and peak intensities were both assessed using three different make-up buffers. Make-up buffer 1 was water, make-up buffer 2 was 10 mM NH4Acetate buffer, and make-up buffer 3 was 10 mM NH4Acetate buffer + 0.2% ammonium hydroxide, v/v. Effects of NH4Acetate concentration was assessed with an online mixed make-up flow (using Experimental Setup B) with the low-pressure gradient pump. As solvent A we used LC-MS grade water and 100 mM NH4Acetate as solvent B. Molassamide was prepared as 100 µM solutions from a 10 mM stock solution in DMSO by preparing a 1:100 dilution into solvent mixture 1 (water + 10% acetonitrile + 0.1% formic acid). Samples were analyzed as described in micro-flow LC-MS/MS data acquisition (setup A); 2 µL of each solution were injected into the mass spectrometer, while chymotrypsin (Sigma), dissolved in water to a final concentration of 2 mg/mL, was injected through the syringe pump at a flow rate of 2 µL/min. pH values were assessed by disconnecting the flow to the source and collecting ~30 µL of solvent every minute, then testing this value on pH paper.
Molassamide was prepared as 100 µM solutions from a 10 mM stock solution in DMSO by preparing a 1:100 dilution into solvent mixture 1 (water + 10% acetonitrile + 0.1% formic acid). From this 100 µM solution, dilutions were prepared at 10, 1, and 0.1 µM into solvent mixture 1. 2 µL of each solution were injected into the mass spectrometer. […]
Take `C=C1C(=O)N[C@@H](C)C(=O)N(C)[C@@H](C)C(=O)N[C@@H]([C@H](OC(=O)[C@@H](NC(=O)CC)[C@H](O)C(C)C)C(C)C)C(=O)N(C)[C@@H]([C@@H](C)OC)C(=O)O[C@H](C(C)C)[C@H](NC(C)=O)C(=O)O[C@H](Cc2ccccc2)C(=O)N1C` [FR900359] (Ac-[X1][dPhLac][NMeDha]A[NMeA][X1](Leu(3R-OH,Nα-propionyl))[NMeT](Me); ester 1-C): the “binding to chymotrypsin under native MS conditions” value was “did not observe the binding; also recorded: no binding”.
On the same count and under the same terms, the entry for `CC[C@H](C)[C@@H](C(=O)O[C@@H](CC(C)C)C(=O)N[C@@H](CC(C)C)C(=O)N[C@@H](C)/C=C/C(=O)N1C(=O)C=C(OC)[C@@H]1C)N(C)C` [gallinamide A] is “did not observe the binding; also recorded: no binding”.
The same measure, in the same setting: for `O=c1c(-c2ccc(O)cc2)coc2cc(O)cc(O)c12` [genistein] the value was “did not observe the binding; also recorded: no binding”; for `Oc1cc(O)cc(O)c1` [phloroglucinol], “did not observe the binding; also recorded: no binding”; for `O=C1c2ccc(O)c(O)c2C(=O)c2c(O)ccc(O)c21` [quinalizarin], “did not observe the binding; also recorded: no binding”.

The subject of a further experiment is Chymotrypsin.
Experiment: not given
Further details: method as in earlier work. The following applies: Supplementary Table 5, Top 50 chymotrypsin inhibitors among Ahp-cyclodepsipeptides; cited from earlier work.
Usually IC50 stands for the concentration that inhibits the measured activity by half. As for `CCCCCC(=O)NCC(=O)N[C@H](C(=O)N[C@@H]1C(=O)N[C@@H](CCC(N)=O)C(=O)N[C@H]2CC[C@@H](O)N(C2=O)[C@@H](Cc2ccccc2)C(=O)N(C)[C@@H](Cc2c[nH]c3ccccc23)C(=O)N[C@@H](C(C)C)C(=O)O[C@@H]1C)[C@@H](C)O` [Micropeptin 103], the IC50 was 1000 nM.
Consider `CCCCCC(=O)N[C@@H](CCC(=O)O)C(=O)N[C@@H]1C(=O)N[C@@H](Cc2ccc(O)cc2)C(=O)N[C@H]2CC[C@@H](O)N(C2=O)[C@@H](Cc2ccccc2)C(=O)N(C)[C@@H](Cc2ccc(O)cc2)C(=O)N[C@@H](C(C)C)C(=O)O[C@@H]1C` [Micropeptin C], for which the IC50 is 1100 nM.
As to `CC[C@@H](C)[C@H]1NC(=O)[C@@H](Cc2ccccc2)N(C)C(=O)[C@@H](CC(C)C)N2C(=O)[C@@H](CC[C@@H]2O)NC(=O)[C@@H](Cc2ccc(O)cc2)NC(=O)[C@H](NC(=O)[C@H](CCC(N)=O)NC(=O)[C@H](O)Cc2ccc(O)cc2)[C@@H](C)OC1=O` [Micropeptin DR1056], the IC50 is 1600 nM.
On to `CCCCCCCC(=O)N[C@@H](CCC(=O)O)C(=O)N[C@@H]1C(=O)N[C@@H](Cc2ccc(O)cc2)C(=O)N[C@H]2CC[C@@H](O)N(C2=O)[C@@H](Cc2ccccc2)C(=O)N(C)[C@@H](Cc2ccc(O)cc2)C(=O)N[C@@H](C(C)C)C(=O)O[C@@H]1C` [Micropeptin D], for which the IC50 was 1200 nM.
Consider `CCCCCC(=O)N[C@@H](CCC(=O)O)C(=O)N[C@@H]1C(=O)N[C@@H](Cc2ccc(O)cc2)C(=O)N[C@H]2CC[C@@H](O)N(C2=O)[C@@H](CC(C)C)C(=O)N(C)[C@@H](Cc2ccc(O)cc2)C(=O)N[C@@H](C(C)C)C(=O)O[C@@H]1C` [Micropeptin E], for which the IC50 is 1000 nM.
Take `CCCCCCCC(=O)N[C@@H](CCC(=O)O)C(=O)N[C@@H]1C(=O)N[C@@H](Cc2ccc(O)cc2)C(=O)N[C@H]2CC[C@@H](O)N(C2=O)[C@@H](CC(C)C)C(=O)N(C)[C@@H](Cc2ccc(O)cc2)C(=O)N[C@@H](C(C)C)C(=O)O[C@@H]1C` [Micropeptin F]: the IC50 was 1500 nM.
As for `CC[C@H](C)[C@@H]1NC(=O)[C@H](Cc2ccccc2)N(C)C(=O)[C@H](C(C)C)N2C(=O)[C@H](CC[C@H]2O)NC(=O)[C@H](CC2C=CC(O)CC2)NC(=O)[C@@H](NC(=O)[C@@H](CCC(N)=O)NC(=O)C(O)Cc2ccc(O)cc2)[C@H](C)OC1=O` (stereo partly shown) [Micropeptin KB1046], the IC50 was 220 nM.
Regarding `CC[C@@H](C)[C@H]1C(=O)N(C)[C@@H](Cc2ccccc2)C(=O)N[C@@H](C(C)C)C(=O)O[C@H](C)[C@H](NC(=O)[C@H](CCC(N)=O)NC(=O)[C@H](O)Cc2ccc(O)cc2)C(=O)N[C@@H](Cc2ccc(O)cc2)C(=O)N[C@H]2CC[C@@H](O)N1C2=O` [Micropeptin KT1042] ({Propanoyl(2R-OH,3-(4-HOPh))}-QTY[Ahp(3S,6R)alloIle][NMeF]V; ester 2-C), the half-maximal inhibitory concentration (IC50) is 260 nM.
For the molecule `CCCCCC(=O)NCC(=O)N[C@H](C(=O)N[C@@H]1C(=O)N[C@@H](CCC(N)=O)C(=O)N[C@H]2CC[C@@H](O)N(C2=O)[C@@H](Cc2ccccc2)C(=O)N(C)[C@@H](Cc2ccc(O)cc2)C(=O)N[C@@H](C(C)C)C(=O)O[C@@H]1C)[C@@H](C)O` [Micropeptin LH1021], the IC50 was 1100 nM.
For `CC[C@H](C)[C@@H]1NC(=O)[C@H](Cc2ccccc2)N(C)C(=O)[C@H](Cc2ccccc2)N2C(=O)[C@H](CC[C@H]2O)NC(=O)[C@H](CC(C)C)NC(=O)[C@@H](NC(=O)[C@H](O)CO)[C@@H](C)OC1=O` [Micropeptin MM836], the IC50 is 1400 nM.
Take `CC[C@H](C)[C@@H]1NC(=O)[C@H](Cc2ccc(O)cc2)N(C)C(=O)[C@H]([C@@H](C)CC)N2C(=O)C(CCC2O)NC(=O)[C@H](CC(C)C)NC(=O)[C@@H]2C(OC1=O)C(C)CN2C(=O)[C@H](CCC(N)=O)NC(C)=O` (stereo partly shown) [Nostopeptin B]: the IC50 is 1600 nM.
In the case of `CC[C@H](C)[C@@H]1NC(=O)[C@H](Cc2ccc(OC)cc2)N(C)C(=O)[C@H]([C@@H](C)O)N2C(=O)[C@H](CC[C@H]2O)NC(=O)[C@H](CC(C)C)NC(=O)[C@@H](NC(=O)[C@H](CCC(N)=O)NC(=O)[C@H](CCc2ccc(O)cc2)NC(=O)[C@@H](O)CO)[C@@H](C)OC1=O` [Planktopeptin BL1125], the IC50 was 800 nM.
As to `CCCC(=O)N[C@@H](CCC(N)=O)C(=O)N[C@@H]1C(=O)N[C@@H](CCCNC(N)=O)C(=O)N[C@H]2CC[C@@H](O)N(C2=O)[C@@H]([C@@H](C)CC)C(=O)N(C)[C@@H](Cc2ccc(OC)c(Br)c2)C(=O)N[C@@H](C(C)C)C(=O)O[C@@H]1C` [Symplocamide A], the IC50 is 380 nM.
For `C/C=C1\NC(=O)[C@@H](NC(=O)[C@@H](NC(=O)[C@H](C)NC(=O)C/C(C)=C/Cl)[C@@H](C)CC)[C@@H](C)OC(=O)[C@H](C(C)C)NC(=O)[C@H](Cc2ccc(O)cc2)N(C)C(=O)[C@H](Cc2ccccc2)N2C(=O)[C@H](CC[C@H]2O)NC1=O` [Tutuilamide A], the IC50 is 1000 nM.
In the case of `C/C=C1\NC(=O)[C@@H](NC(=O)[C@@H](NC(=O)[C@H](C)NC(=O)C/C(C)=C/Cl)C(C)C)[C@@H](C)OC(=O)[C@H](C(C)C)NC(=O)[C@H](Cc2ccc(O)cc2)N(C)C(=O)[C@H](Cc2ccccc2)N2C(=O)[C@H](CC[C@H]2O)NC1=O` [Tutuilamide B], the IC50 is 577 nM.
For the molecule Crocapeptin B, the half-maximal inhibitory concentration (IC50) was 200 nM.
For the molecule Cyanopeptolin CP978, the half-inhibitory concentration (IC50) is 260 nM.
Turning to Cyanopeptolin CP992, the IC50 was 240 nM.
For the molecule Cyanopeptolin CP1018, the IC50 was 240 nM.
Take Dinghupepeptin B: the 50% inhibitory concentration (IC50) was 1100 nM.
On to Loggerpeptin A, for which the IC50 was 240 nM.
On to Micropeptin 88-A, for which the IC50 was 400 nM.
Regarding Micropeptin 88-Y, the IC50 is 1300 nM.
Micropeptin KB991: the IC50 is 870 nM.
For the molecule Micropeptin KB1048, the IC50 is 630 nM.
For the molecule Micropeptin MM850, the IC50 is 1700 nM.
For the molecule Micropeptin T-20, the half-maximal inhibitory concentration (IC50) was 2.5 nM.
For Tutuilamide C, the IC50 was 542 nM.

The experiment is the same for the next values; noted with them: cited from earlier work.
For Microcystin 996, the IC50 is 640 nM.
